In ChEMBL document CHEMBL1148572, “1-((S)-2-aminopropyl)-1H-indazol-6-ol: a potent peripherally acting 5-HT2 receptor agonist with ocular hypotensive activity” (J Med Chem, 2006):

Tests used:
[1] = Inhibitory activity at TBOB site in GABA gated chloride channel at 1 nM
[2] = molecular target: T1, 5-hydroxytryptamine receptor 1A (Homo sapiens, UniProt P08908); test: Displacement of [3H]8-OH-DPAT from recombinant human 5HT1A receptor expressed in CHO cells; type: cell-based
T1 sequence (P08908 whole entry): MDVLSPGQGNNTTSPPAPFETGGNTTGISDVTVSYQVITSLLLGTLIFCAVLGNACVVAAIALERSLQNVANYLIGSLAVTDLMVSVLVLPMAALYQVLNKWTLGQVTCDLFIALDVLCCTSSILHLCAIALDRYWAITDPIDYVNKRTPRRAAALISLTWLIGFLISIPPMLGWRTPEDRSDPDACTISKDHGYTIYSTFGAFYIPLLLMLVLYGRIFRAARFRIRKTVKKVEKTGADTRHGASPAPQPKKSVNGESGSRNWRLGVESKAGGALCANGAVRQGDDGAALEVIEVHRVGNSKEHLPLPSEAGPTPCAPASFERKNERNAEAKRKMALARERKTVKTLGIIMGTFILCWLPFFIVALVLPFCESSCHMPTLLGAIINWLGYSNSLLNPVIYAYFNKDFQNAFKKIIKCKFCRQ

[3] = molecular target: 5-hydroxytryptamine receptor 2B (Rattus norvegicus, UniProt P30994); test: Activity against 5HT2B receptor in longitudinal stomach fundus strips in wistar rats
[4] = molecular target: T2, Glutamate [NMDA] receptor (Homo sapiens) (UniProt Q05586+Q12879+Q13224+O15399+O60391+Q14957+Q8TCU5); test: Inhibition of MK-801 site of glutamate receptor at 1 nM; type: protein-complex assay
[5] = molecular target: T1, 5-hydroxytryptamine receptor 1A; test: Agonistic activity at cloned human 5HT1A receptor expressed in CHO cells by inhibition of forskolin-induced cAMP production; type: functional, cell-based
[6] = Inhibitory activity at site 2 of sodium channel at 10 uM
[7] = molecular target: T3, Type-1 angiotensin II receptor (Homo sapiens) (UniProt P30556); test: Inhibition of type 1 angiotensin 2 receptor at 1 nM
T3 sequence (whole entry): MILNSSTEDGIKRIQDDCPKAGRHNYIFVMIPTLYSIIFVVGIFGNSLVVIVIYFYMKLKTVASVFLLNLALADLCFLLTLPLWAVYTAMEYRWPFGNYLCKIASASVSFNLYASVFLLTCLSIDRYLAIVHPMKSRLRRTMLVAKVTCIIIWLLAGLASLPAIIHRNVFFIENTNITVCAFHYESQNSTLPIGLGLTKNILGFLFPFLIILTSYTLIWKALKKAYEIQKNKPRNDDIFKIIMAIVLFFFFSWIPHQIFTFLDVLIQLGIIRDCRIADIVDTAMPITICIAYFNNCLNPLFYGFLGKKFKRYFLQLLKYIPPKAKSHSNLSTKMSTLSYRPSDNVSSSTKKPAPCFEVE

[8] = molecular target: Adrenergic receptor beta (Homo sapiens) (UniProt P08588+P07550+P13945); test: Inhibition of non selective binding to adrenergic beta receptor at 10 uM; type: protein assay
[9] = molecular target: GABA-A receptor; agonist GABA site (Homo sapiens) (UniProt P14867+P47870+P28472+P48169+P34903+P18505+P47869+P31644+Q16445); test: Inhibition of agonist site of GABAA receptor at 10 uM; type: functional
[10] = molecular target: Opioid receptors; mu/kappa/delta (Homo sapiens) (UniProt P41145+P41143+P35372); test: Inhibition of non selective binding to opiate receptor at 100 nM; type: protein assay
[11] = molecular target: Glutamate receptor ionotropic kainate (Homo sapiens) (UniProt P39086+Q16478+Q16099+Q13002+Q13003); test: Inhibition of kainate receptor at 10 uM; type: protein-complex assay
[12] = molecular target: T4, Atrial natriuretic peptide receptor 1 (Homo sapiens) (UniProt P16066); test: Inhibition of ANP A at 10 uM
T4 sequence (whole entry): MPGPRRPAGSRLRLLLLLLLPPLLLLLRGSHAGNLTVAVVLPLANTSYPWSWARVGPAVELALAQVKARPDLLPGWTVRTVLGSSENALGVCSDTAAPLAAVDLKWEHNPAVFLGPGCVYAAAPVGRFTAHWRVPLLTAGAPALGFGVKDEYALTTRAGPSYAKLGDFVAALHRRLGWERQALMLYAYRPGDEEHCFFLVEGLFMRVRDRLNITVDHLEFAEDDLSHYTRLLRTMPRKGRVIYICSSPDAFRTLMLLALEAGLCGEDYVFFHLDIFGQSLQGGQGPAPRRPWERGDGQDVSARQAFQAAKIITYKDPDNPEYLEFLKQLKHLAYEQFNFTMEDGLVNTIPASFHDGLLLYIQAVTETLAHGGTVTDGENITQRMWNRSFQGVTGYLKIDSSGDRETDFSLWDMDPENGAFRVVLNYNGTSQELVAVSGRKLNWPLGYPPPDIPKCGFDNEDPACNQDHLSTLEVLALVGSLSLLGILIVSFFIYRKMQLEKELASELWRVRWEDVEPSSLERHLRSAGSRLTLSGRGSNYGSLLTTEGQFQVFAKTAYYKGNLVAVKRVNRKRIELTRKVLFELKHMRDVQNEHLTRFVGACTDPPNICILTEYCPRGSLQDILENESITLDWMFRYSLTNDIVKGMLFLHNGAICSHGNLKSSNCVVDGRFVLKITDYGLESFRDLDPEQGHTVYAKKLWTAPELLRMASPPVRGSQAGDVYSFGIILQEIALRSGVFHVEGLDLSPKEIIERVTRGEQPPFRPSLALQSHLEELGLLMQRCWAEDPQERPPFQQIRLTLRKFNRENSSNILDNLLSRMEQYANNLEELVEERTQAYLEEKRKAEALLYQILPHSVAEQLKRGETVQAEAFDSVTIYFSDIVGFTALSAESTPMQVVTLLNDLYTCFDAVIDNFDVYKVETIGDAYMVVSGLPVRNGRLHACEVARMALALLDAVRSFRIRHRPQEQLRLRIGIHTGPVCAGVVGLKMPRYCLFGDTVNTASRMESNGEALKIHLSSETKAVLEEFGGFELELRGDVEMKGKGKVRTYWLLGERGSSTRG

[13] = molecular target: T2, Glutamate [NMDA] receptor (Homo sapiens); test: Inhibition of agonist site of NMDA receptor at 100 nM; type: functional
[14] = molecular target: T4, Atrial natriuretic peptide receptor 1 (Homo sapiens); test: Inhibition of ANP A at 100 nM
[15] = Inhibition of non selective binding to VIP at 1 nM

5-hydroxytryptamine receptor 2B, sequence (P30994 whole entry): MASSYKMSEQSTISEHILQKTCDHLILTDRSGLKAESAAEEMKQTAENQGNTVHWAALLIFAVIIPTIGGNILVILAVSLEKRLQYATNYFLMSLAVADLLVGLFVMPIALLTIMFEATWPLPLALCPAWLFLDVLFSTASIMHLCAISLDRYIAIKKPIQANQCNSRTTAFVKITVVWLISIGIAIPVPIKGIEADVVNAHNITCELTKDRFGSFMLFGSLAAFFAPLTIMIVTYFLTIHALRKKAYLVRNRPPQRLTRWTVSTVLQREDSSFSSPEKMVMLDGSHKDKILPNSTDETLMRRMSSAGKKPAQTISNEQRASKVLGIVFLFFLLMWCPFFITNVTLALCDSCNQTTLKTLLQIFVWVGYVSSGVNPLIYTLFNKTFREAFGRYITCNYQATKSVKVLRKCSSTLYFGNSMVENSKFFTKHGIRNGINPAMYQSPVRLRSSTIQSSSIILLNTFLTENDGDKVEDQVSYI
Opioid receptors; mu/kappa/delta (Homo sapiens), sequence (P35372 whole entry, looked up): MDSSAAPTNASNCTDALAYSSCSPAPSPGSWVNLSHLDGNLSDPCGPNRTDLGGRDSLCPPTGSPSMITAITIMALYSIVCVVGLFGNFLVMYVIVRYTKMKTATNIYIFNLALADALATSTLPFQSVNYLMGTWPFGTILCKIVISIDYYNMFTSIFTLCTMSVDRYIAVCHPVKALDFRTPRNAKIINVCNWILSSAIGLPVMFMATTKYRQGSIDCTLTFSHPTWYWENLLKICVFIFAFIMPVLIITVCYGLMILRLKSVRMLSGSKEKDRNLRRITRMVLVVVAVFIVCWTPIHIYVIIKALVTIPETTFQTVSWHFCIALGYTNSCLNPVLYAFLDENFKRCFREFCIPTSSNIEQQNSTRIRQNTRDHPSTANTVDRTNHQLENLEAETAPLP
Opioid receptors; mu/kappa/delta (Homo sapiens), sequence (P41143 whole entry, looked up): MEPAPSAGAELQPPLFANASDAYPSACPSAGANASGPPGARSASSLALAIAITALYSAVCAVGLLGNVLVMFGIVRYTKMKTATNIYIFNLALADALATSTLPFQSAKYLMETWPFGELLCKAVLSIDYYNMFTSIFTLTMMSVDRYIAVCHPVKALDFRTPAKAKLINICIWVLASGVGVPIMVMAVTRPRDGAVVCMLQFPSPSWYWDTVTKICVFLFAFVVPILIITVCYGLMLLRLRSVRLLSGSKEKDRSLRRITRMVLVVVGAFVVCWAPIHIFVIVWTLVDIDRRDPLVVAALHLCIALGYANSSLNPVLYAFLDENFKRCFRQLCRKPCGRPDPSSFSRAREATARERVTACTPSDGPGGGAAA
Opioid receptors; mu/kappa/delta (Homo sapiens), sequence (P41145 whole entry, looked up): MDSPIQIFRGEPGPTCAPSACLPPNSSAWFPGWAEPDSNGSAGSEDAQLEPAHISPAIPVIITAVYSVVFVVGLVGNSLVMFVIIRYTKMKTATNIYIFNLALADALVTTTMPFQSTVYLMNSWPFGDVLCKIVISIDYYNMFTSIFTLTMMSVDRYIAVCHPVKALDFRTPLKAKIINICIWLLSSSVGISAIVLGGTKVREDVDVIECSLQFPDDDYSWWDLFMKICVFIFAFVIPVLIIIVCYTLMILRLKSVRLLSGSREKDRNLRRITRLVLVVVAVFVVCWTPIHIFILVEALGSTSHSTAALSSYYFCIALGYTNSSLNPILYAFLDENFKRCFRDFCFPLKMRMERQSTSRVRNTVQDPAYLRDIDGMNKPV

C[C@H](N)Cn1ncc2ccc(O)cc21
inhibition [1]: -3.75%
Ki [2]: 141 nM
EC50 [3]: 2 nM
inhibition [4]: -7.45%
EC50 [5]: 1460 nM
inhibition [6]: -0.61%
inhibition [7]: 5.26%
inhibition [8]: 30.4%
inhibition [9]: 6.69%
inhibition [10]: -2.14%
inhibition [11]: 6.62%
inhibition [12]: -5.3%
inhibition [13]: 15.7%
inhibition [14]: 3.01%
inhibition [15]: 5.87%
